How the values were obtained:
Experiment in all cases: normalised response (% of control), CellTiter-Glo; higher = more viable cells (100 = DMSO, 0 = benzethonium chloride kill control)
Settings in all cases: incubation time: 72 h
[1] = tested on: CAL-51
Experimental: (§1)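 DSRT, 72 h incubation, CellTox Green / CellTiter-Glo readout. Signal is normalised to DMSO and benzethonium chloride controls. Value is the normalised response at the highest dose.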

[2] = tested on: MDA-MB-453
Experimental: as §1

[3] = tested on: MDA-MB-436
Experimental: as §1

[4] = tested on: HCC1143
Experimental: as §1

[5] = tested on: MDA-MB-231
Experimental: as §1

[6] = tested on: DU-4475
Experimental: as §1

[7] = tested on: MDA-MB-468
Experimental: as §1

[8] = tested on: CAL-120
Experimental: as §1

[9] = tested on: HCC1599
Experimental: as §1

[10] = tested on: CAL-85-1
Experimental: as §1

[11] = tested on: MFM-223
Experimental: as §1

[12] = tested on: HCC1937
Experimental: as §1

[13] = tested on: BT-474
Experimental: as §1

[14] = tested on: Hs578T
Experimental: as §1

[15] = tested on: CAL-148
Experimental: as §1

SMILES | normalised response [1] [%] | normalised response [2] [%] | normalised response [3] [%] | normalised response [4] [%] | normalised response [5] [%] | normalised response [6] [%] | normalised response [7] [%] | normalised response [8] [%] | normalised response [9] [%] | normalised response [10] [%] | normalised response [11] [%] | normalised response [12] [%] | normalised response [13] [%] | normalised response [14] [%] | normalised response [15] [%]
c1ccc2c(CCNc3ccc(Nc4ccncc4)cc3)c[nH]c2c1 [Serdemetan] (10000 nM) | 9.77 | 42.3 | 44.8 | 52.9 | 41 | 0.28 | 9.51 | 67.3 | 14.4 | 39.1 | 58 | 49.7 | 51.8 | 48.1 | 21.3
CNC(=O)c1cc(Oc2ccc(NC(=O)Nc3ccc(Cl)c(C(F)(F)F)c3)c(F)c2)ccn1 [Regorafenib] (10000 nM) | 73.8 | 59.1 | 46.9 | 77.8 | 61.2 | 58.2 | 29.8 | 49.8 | 36.5 | 89.3 | 35.9 | 50.1 | 50 | 47 | 66.7
C=C1C[C@@H]2[C@H](CC[C@]3(C)C(=O)CC[C@@H]23)[C@@]2(C)C=CC(=O)C=C12 [Exemestane] (10000 nM) | 81.7 | 95.7 | 88 | 94.1 | 104 | 108 | 76.3 | 101 | 107 | 97.7 | 94.5 | 89.5 | 108 | 102 | 112
COCC[n+]1c2c(n(Cc3cnccn3)c1C)C(=O)c1ccccc1C2=O [YM155] (10000 nM) | -0.12 | -0.58 | -0.62 | -0.39 | -0.19 | -0.36 | -0.19 | -0.38 | -0.77 | -0.28 | 5.6 | 0.28 | 1.71 | -0.62 | -0.38
O=C(Nc1ccncc1)C(=O)c1cn(Cc2ccc(Cl)cc2)c2ccccc12 [Indibulin] (10000 nM) | 18.4 | 66.9 | 44.7 | 47.9 | 53.8 | 79 | 37 | 60.7 | 73.1 | 43 | 62.5 | 69 | 73.5 | 51.4 | 103
O=C(Nc1cccnc1)N1CCC(Cc2cccc(Oc3ccc(C(F)(F)F)cn3)c2)CC1 [PF-3845] (10000 nM) | 44.6 | 74.7 | 72.6 | 86.1 | 89.1 | 85 | 49.1 | 86 | 46.2 | 89.7 | 75.7 | 75.3 | 93.3 | 92.1 | 88.4
CN(C)c1nc(N(C)C)nc(N(C)C)n1 [Altretamine] (10000 nM) | 109 | 108 | 107 | 100 | 102 | 107 | 104 | 100 | 112 | 108 | 106 | 100 | 98.7 | 105 | 106
CCc1c2c(nc3ccc(OC(=O)N4CCC(N5CCCCC5)CC4)cc13)-c1cc3c(c(=O)n1C2)COC(=O)[C@]3(O)CC [Irinotecan] (10000 nM) | 34.8 | 102 | 36.8 | 60.1 | 84.8 | 41.8 | 23.2 | 70 | 29.8 | 63.6 | 96.5 | 70.9 | 69.5 | 86.9 | 26.4
Oc1ccc2c(c1)CC[C@H](c1ccccc1)[C@@H]2c1ccc(OCCN2CCCC2)cc1 [Lasofoxifene] (1000 nM) | 78.9 | 88.7 | 110 | 97.7 | 102 | 96.2 | 99.7 | 114 | 99.2 | 100 | 102 | 99.3 | 103 | 107 | 122
COc1cc2ncnc(Nc3ccc(F)c(Cl)c3)c2cc1OCCCN1CCOCC1 [Gefitinib] (10000 nM) | 100 | 60.3 | 74.1 | 77 | 70.5 | 104 | 38.1 | 83.6 | 81.9 | 34.7 | 75 | 60.9 | 69.8 | 97 | 69.7
COCC1(CO)C(=O)C2CCN1CC2 (stereo not given) [Prima-1 Met] (10000 nM) | 130 | 93.1 | 97.7 | 98 | 97.6 | 106 | 91.3 | 100 | 108 | 102 | 103 | 101 | 97.1 | 97.4 | 110

Source: the supplement of paper PMC4862054
